Results on two compounds are retold here after paper PMC7714071, “Interaction of amyloid beta with humanin and acetylcholinesterase is modulated by ATP” (FEBS Open Bio, 2020).

Data set [1] concerns Aβ in H1299 cell-conditioned media. Put plainly: ELISA, oligomer versus total Aβ in H1299 cell-conditioned media. The format is cell-based, human. To be noted: Fig. 8B. Here is the method: (§1) Aβ ELISAs were carried out according to previous protocols for determining the oligomeric and monomeric concentrations of Aβ and as we recently reported. Briefly, total Aβ (monomers + oligomers) was measured by two‐site binding ELISAs using the capture 6E10 monoclonal antibody and 4G8‐conjugated biotin as the detection antibody, which recognizes a distinct epitope, then quantitated using streptavidin‐HRP.
(§2) Using the same samples, oligomerized Aβ was measured by a single‐site ELISA in which antibodies targeting the same primary sequence epitope were used for both capture (4G8) and detection (4G8‐biotin). Only oligomers are detected with this approach since the 4G8‐biotin antibody cannot bind to the captured monomer because the epitope is blocked by the 4G8 capture antibody. Therefore, only oligomeric or multimeric Aβ containing additional exposed 4G8 epitopes, not engaged by the capture antibody, are reported by the streptavidin–HRP. The amount of the monomer was then estimated as the difference between the concentration of total Aβ and the concentration of the oligomer.
(§3) Conditioned media were immunodepleted (ID) according to the methods previously described and our recently published report. Briefly, specific antibodies were bound to ELISA wells overnight (1 : 1000 dilution). The wells were then blocked and washed, then 300 μL of the conditioned medium (0.5 μg·μL^−1) treated as indicated, 72 h postserum starvation, was incubated with the antibodies bound to ELISA wells for 24 h. The ID media were then carefully removed and analyzed for the presence of the target protein or peptide by ELISA. The same amount of protein (3 µL of 600 µg·mL^−1 total protein) of each sample was analyzed in the experiments. Significant depletion (95–100%) was observed upon using each of the antibodies employed in this study.
(§4) Both epitopes recognized by the 6E10 and 4G8 antibodies have been previously shown to be exposed in Aβ aggregates. […] To determine the effect of ID of AChE or HN on this ratio in the absence or presence of added ATP, 0.2 × 10^5 cells per well were seeded in 96‐well plates in 10% FBS‐supplemented media. The next day, the cells were incubated in serum‐free medium for 72 h, then ID of AChE or HN as described in Materials and methods. The antibodies 6E10 or 4G8 were bound (1 : 1000 dilution) to ELISA wells (Fig. 8). The wells were blocked, and then incubated with 300 μL of the ID medium (0.5 μg·μL^−1). Biotin‐4G8 was then added and the signal processed as described in Materials and methods section. Fold change relative to controls using anti‐6E10 or anti‐4G8 antibodies incubated with 300 μL of the medium not incubated with cells was calculated.
(§5) Cells (0.2 × 10^5) were grown in 10% FBS‐supplemented media for 24 h. The cells were then incubated in serum‐free medium for 72 h without or with ATP and the media collected and ID from either HN or AChE as described in Materials and methods section. The antibodies 6E10 or 4G8 were bound (1 : 1000 dilution) to ELISA wells. The wells were blocked, and then incubated with 300 μL of the control and ID medium (0.5 μg·μL^−1). Biotin‐4G8 was then added and the signal processed as described in Materials and methods section. Fold change relative to controls using anti‐6E10 and anti‐4G8 antibodies and 300 μL of the medium not incubated with cells was calculated. Data were processed using the […] 8.4.3 software. The graphs summarize the results expressed as means ± SD of three separate experiments, each performed in triplicate. […]

Data set [2] concerns A549 cells. Particulars: cited from earlier work. Here is the method:
Since addition of ATP appears to increase binding of HN to Aβ, and conversely, decreases the interaction of Aβ with AChE (Figs 3, 4, 5, 6), we tested the effect of added ATP on A549 and H1299 cell viability (Fig. 7). Exogenously added ATP at either 100 µM or 1 mM had no effect on viability of either A549 (Fig. 7A) or H1299 cells (Fig. 7B).

The test system of data set [3] is Aβ in A549 cell-conditioned media. The data set is described as follows: ELISA, oligomer versus total Aβ in A549 cell-conditioned media. To be noted: Fig. 8A. Type of data set: cell-based, human. The method, then:
as §1, §2, §3, §4, §5

The mark [4] stands for this setting: non-depleted, HN-ID or AChE-ID media.

`Nc1ncnc2c1ncn2[C@@H]1O[C@H](COP(=O)(O)OP(=O)(O)OP(=O)(O)O)[C@@H](O)[C@H]1O` [ATP, Adenosine triphosphate]: the “effect of ATP on relative amount of oligomer versus total Aβ” value in data set [1] (HN-immunodepleted H1299 media, three experiments in triplicate) is given as “does not affect”; in data set [1] (setting [4]), “lack of effect”; in data set [3] (HN-immunodepleted A549 media, three experiments in triplicate), “does not affect”; in data set [3] (setting [4]), “lack of effect”. In data set [2] (100 μM or 1 mM ATP), the “effect of ATP on A549 cell viability” value is “no effect”.
For Humanin [HN], the “oligomer, % of total Aβ remaining after HN ID” value was ~ 69% in data set [1] (HN-immunodepleted H1299 media (non-depleted ~ 48%)) and ~ 86% in data set [3] (HN-immunodepleted A549 media (non-depleted ~ 63%)). Besides, the “total Aβ remaining after HN ID” value in data set [1] (HN-immunodepleted H1299 media) is ~ 58%; in data set [3] (HN-immunodepleted A549 media) it was ~ 63%. The “cell viability upon ID of HN” value in data set [2] (HN immunodepleted from A549 conditioned media) is recorded as “diminished cell viability”. The “apoptosis upon ID of HN” value in data set [2] (HN-ID A549 media) is “increased apoptosis”.
